Experimental findings from patent US20160271263A1 (Novo Nordisk A/S, priority 2010, published 2016) are described below.

In general, EC50 refers to the concentration that produces a half-maximal response. The low end stands for higher potency in that assay, the high end for lower potency in that assay.

Molecules are shown by their SMILES. Numbered stars: 1 amine (or outer) side, 2 acyl side, 3 side chain; on linkers, the order of the positions; unused ones are H or OH. Square brackets hold non-standard residues; d marks the D form. Side chains are listed from the residue outwards. Peptide text beside a SMILES is read from it. * marks the point of attachment. C18 diacid = O=C(O)CCCCCCCCCCCCCCCCC(=O)*; γGlu = O=C(O)[C@H](CCC(=O)[*:2])N[*:1]; AEEA = NCCOCCOCC(=O)O

For the assay, the target named is glucagon receptor (Homo sapiens, UniProt P47871). As to the kind of experiment: cell-based.
Sequence of glucagon receptor (P47871 26-477): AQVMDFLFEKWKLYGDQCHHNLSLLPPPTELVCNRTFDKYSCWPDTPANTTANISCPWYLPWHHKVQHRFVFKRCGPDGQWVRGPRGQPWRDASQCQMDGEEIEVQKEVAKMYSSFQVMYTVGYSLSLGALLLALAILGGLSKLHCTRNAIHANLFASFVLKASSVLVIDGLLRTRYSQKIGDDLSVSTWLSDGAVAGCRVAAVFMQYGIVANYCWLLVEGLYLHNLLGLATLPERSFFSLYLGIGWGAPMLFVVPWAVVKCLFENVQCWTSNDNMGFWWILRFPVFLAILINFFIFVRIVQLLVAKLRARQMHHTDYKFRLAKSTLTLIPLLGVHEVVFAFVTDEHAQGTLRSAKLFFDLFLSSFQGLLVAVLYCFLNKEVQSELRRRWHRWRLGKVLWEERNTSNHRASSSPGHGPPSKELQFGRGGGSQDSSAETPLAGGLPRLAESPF
Molecule `CC(C)C[C@H](NC(=O)[C@H](Cc1ccc(O)cc1)NC(=O)[C@H](CCCCN)NC(=O)[C@H](CO)NC(=O)[C@H](Cc1ccc(O)cc1)NC(=O)[C@H](CC(=O)O)NC(=O)[C@H](CO)NC(=O)[C@@H](NC(=O)[C@H](Cc1ccccc1)NC(=O)[C@@H](NC(=O)CNC(=O)[C@H](CCC(N)=O)NC(=O)[C@H](CO)NC(=O)[C@@H](N)Cc1c[nH]cn1)[C@@H](C)O)[C@@H](C)O)C(=O)N[C@@H](CC(=O)O)C(=O)N[C@@H](CO)C(=O)N[C@@H](CCCNC(=N)N)C(=O)N[C@@H](CCCNC(=N)N)C(=O)N[C@@H](C)C(=O)N[C@@H](CCCCNC(=O)CC[C@H](NC(=O)CC[C@H](NC(=O)COCCOCCNC(=O)COCCOCCNC(=O)CC[C@H](NC(=O)CCCCCCCCCCCCCCCCC(=O)O)C(=O)O)C(=O)O)C(=O)O)C(=O)N[C@@H](CC(=O)O)C(=O)N[C@@H](Cc1ccccc1)C(=O)N[C@H](C(=O)N[C@@H](CCC(N)=O)C(=O)N[C@@H](Cc1c[nH]c2ccccc12)C(=O)N[C@@H](CC(C)C)C(=O)N[C@@H](CC(C)C)C(=O)N[C@@H](CC(N)=O)C(=O)N[C@H](C(=O)O)[C@@H](C)O)C(C)C` [Example 98, N^ε20-[(4S)-4-carboxy-4-[[(4S)-4-carboxy-4-[[2-[2-[2-[[2-[2-[2-[[(4S)-4-carboxy-4-(17-carboxyheptadecanoylamino)butanoyl]amino]ethoxy]ethoxy]acetyl]amino]ethoxy]ethoxy]acetyl]amino]butanoyl]amino]butanoyl]-[Lys^20,Leu^27]-Glucagon] gave a concentration for a half-maximal effect (EC50) of 0.058 nM.

`CC(C)C[C@H](NC(=O)[C@H](Cc1ccc(O)cc1)NC(=O)[C@H](CCCCN)NC(=O)[C@H](CO)NC(=O)[C@H](Cc1ccc(O)cc1)NC(=O)[C@H](CC(=O)O)NC(=O)[C@H](CO)NC(=O)[C@@H](NC(=O)[C@H](Cc1ccccc1)NC(=O)[C@@H](NC(=O)[C@@H](Cc1ccccc1)NC(=O)[C@H](CCC(N)=O)NC(=O)[C@H](CO)NC(=O)[C@@H](N)Cc1c[nH]cn1)[C@@H](C)O)[C@@H](C)O)C(=O)N[C@@H](CC(=O)O)C(=O)N[C@@H](CO)C(=O)N[C@@H](CCCNC(=N)N)C(=O)N[C@@H](CCCNC(=N)N)C(=O)N[C@@H](C)C(=O)N[C@@H](CCC(N)=O)C(=O)N[C@@H](CC(=O)O)C(=O)N[C@@H](Cc1ccccc1)C(=O)N[C@H](C(=O)N[C@@H](CCCCNC(=O)CC[C@H](NC(=O)CC[C@H](NC(=O)COCCOCCNC(=O)COCCOCCNC(=O)CC[C@H](NC(=O)CCCCCCCCCCCCCCCCC(=O)O)C(=O)O)C(=O)O)C(=O)O)C(=O)N[C@@H](Cc1c[nH]c2ccccc12)C(=O)N[C@@H](CC(C)C)C(=O)N[C@@H](CC(C)C)C(=O)N[C@@H](CO)C(=O)N[C@H](C(=O)O)[C@@H](C)O)C(C)C` [Example 99, N^ε24-[(4S)-4-carboxy-4-[[(4S)-4-carboxy-4-[[2-[2-[2-[[2-[2-[2-[[(4S)-4-carboxy-4-(17-carboxyheptadecanoylamino)butanoyl]amino]ethoxy]ethoxy]acetyl]amino]ethoxy]ethoxy]acetyl]amino]butanoyl]amino]butanoyl]-[D-Phe4,Lys24,Leu27,Ser28]-Glucagon] (H-HSQ[dF]TFTSDYSKYLDSRRAQDFVK([γGlu-γGlu-AEEA-AEEA-γGlu-C18 diacid])WLLST-OH): a half-maximal response (EC50) required 0.044 nM. The value for `CC(C)C[C@H](NC(=O)[C@H](Cc1ccc(O)cc1)NC(=O)[C@H](CCCCN)NC(=O)[C@H](CO)NC(=O)[C@H](Cc1ccc(O)cc1)NC(=O)[C@H](CC(=O)O)NC(=O)[C@H](CO)NC(=O)[C@@H](NC(=O)[C@H](Cc1ccccc1)NC(=O)[C@@H](NC(=O)CNC(=O)[C@H](CCC(N)=O)NC(=O)[C@H](CO)NC(=O)[C@@H](N)Cc1c[nH]cn1)[C@@H](C)O)[C@@H](C)O)C(=O)N[C@@H](CC(=O)O)C(=O)N[C@@H](CCCCNC(=O)CC[C@H](NC(=O)CC[C@H](NC(=O)COCCOCCNC(=O)COCCOCCNC(=O)CC[C@H](NC(=O)CCCCCCCCCCCCCCCCC(=O)O)C(=O)O)C(=O)O)C(=O)O)C(=O)N[C@@H](CCCNC(=N)N)C(=O)N[C@@H](CCCNC(=N)N)C(=O)N[C@@H](C)C(=O)N[C@@H](CCC(N)=O)C(=O)N[C@@H](CCC(=O)O)C(=O)N[C@@H](Cc1ccccc1)C(=O)N[C@H](C(=O)N[C@@H](CCC(N)=O)C(=O)N[C@@H](CCCNC(=N)N)C(=O)N[C@@H](CC(C)C)C(=O)N[C@@H](CC(C)C)C(=O)N[C@@H](CC(N)=O)C(=O)N[C@H](C(=O)O)[C@@H](C)O)C(C)C` [Example 100, N^ε16-[(4S)-4-carboxy-4-[[(4S)-4-carboxy-4-[[2-[2-[2-[[2-[2-[2-[[(4S)-4-carboxy-4-(17-carboxyheptadecanoylamino)butanoyl]amino]ethoxy]ethoxy]acetyl]amino]ethoxy]ethoxy]acetyl]amino]butanoyl]amino]butanoyl]-[Lys^16,Glu^21,Arg^25,Leu^27]-Glucagon] (H-HSQGTFTSDYSKYLDK([γGlu-γGlu-AEEA-AEEA-γGlu-C18 diacid])RRAQEFVQRLLNT-OH) was 0.45 nM; that for `CC(C)C[C@H](NC(=O)[C@H](Cc1ccc(O)cc1)NC(=O)[C@H](CCCCN)NC(=O)[C@H](CO)NC(=O)[C@H](Cc1ccc(O)cc1)NC(=O)[C@H](CC(=O)O)NC(=O)[C@H](CO)NC(=O)[C@@H](NC(=O)[C@H](Cc1ccccc1)NC(=O)[C@@H](NC(=O)CNC(=O)[C@H](CCC(N)=O)NC(=O)[C@H](CO)NC(=O)[C@@H](N)Cc1c[nH]cn1)[C@@H](C)O)[C@@H](C)O)C(=O)N[C@@H](CC(=O)O)C(=O)N[C@@H](CO)C(=O)N[C@@H](CCCNC(=N)N)C(=O)N[C@@H](CCCNC(=N)N)C(=O)N[C@@H](C)C(=O)N[C@@H](CCC(=O)O)C(=O)N[C@@H](CC(=O)O)C(=O)N[C@@H](Cc1ccccc1)C(=O)N[C@H](C(=O)N[C@@H](CCCCNC(=O)CC[C@H](NC(=O)CC[C@H](NC(=O)COCCOCCNC(=O)COCCOCCNC(=O)CC[C@H](NC(=O)CCCCCCCCCCCCCCCCC(=O)O)C(=O)O)C(=O)O)C(=O)O)C(=O)N[C@@H](Cc1c[nH]c2ccccc12)C(=O)N[C@@H](CC(C)C)C(=O)N[C@@H](CC(C)C)C(=O)N[C@@H](CO)C(=O)N[C@H](C(=O)O)[C@@H](C)O)C(C)C` [Example 101, N^ε24-[(4S)-4-carboxy-4-[[(4S)-4-carboxy-4-[[2-[2-[2-[[2-[2-[2-[[(4S)-4-carboxy-4-(17-carboxyheptadecanoylamino)butanoyl]amino]ethoxy]ethoxy]acetyl]amino]ethoxy]ethoxy]acetyl]amino]butanoyl]amino]butanoyl]-[Glu^20,Lys^24,Leu^27,Ser^28]-Glucagon] was 0.307 nM.
